Reference: the supplement of paper PMC4380931

Experiments:
WM1552C [1] = test: apoptotic fraction of cells (caspase-3 NucView488 positive); higher = more apoptosis
Experimental: (§1)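 BRAF V600E/D melanoma cell lines were seeded in 96-well plates, treated in 4 replicates with seven doses (3.16 nM to 3.16 uM) of RAF/MEK inhibitors for 24, 48 or 72 h, and stained with Hoechst 33342 (nuclei) and DEVD-NucView488 caspase-3 substrate. Plates were imaged on an Operetta. Relative viability is the cell count normalised to a DMSO-treated control; apoptosis fraction is the fraction of NucView488-positive nuclei.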

COLO858 = test: as above
Experimental: as §1

RVH421 = test: as above
Experimental: as §1

LOXIMVI = test: as above
Experimental: as §1

WM1552C [2] = test: relative viability (cell count relative to DMSO-treated control) (fraction of DMSO control); higher = more viable cells / less drug effect
Experimental: as §1

MZ7MEL = test: as above
Experimental: as §1

CCCS(=O)(=O)Nc1ccc(F)c(C(=O)c2c[nH]c3ncc(-c4ccc(Cl)cc4)cc23)c1F [Vemurafenib]
Conditions	apoptotic fraction of cells, COLO858	apoptotic fraction of cells, LOXIMVI	apoptotic fraction of cells, RVH421	apoptotic fraction of cells, WM1552C [1]	relative viability, MZ7MEL	relative viability, WM1552C [2]
24 h, 0.00316 µM	0.0468	0.0511	0.04937	0.0617	0.982	0.92
24 h, 0.01 µM	0.0448	0.0524	0.0545	0.0655	1.11	0.969
24 h, 0.0316 µM	0.0467	0.0364	0.0463	0.0602	1.08	0.912
24 h, 0.1 µM	0.0418	0.0578	0.0489	0.0665	1.08	1.06
24 h, 0.316 µM	0.0538	0.0383	0.0609	0.0682	1.15	1.03
24 h, 1 µM	0.0998	0.0551	0.0547	0.0745	1.1	0.987
24 h, 3.16 µM	0.151	0.0557	0.0664	0.0696	0.938	0.875
48 h, 0.00316 µM	0.0487	0.103	0.0497	0.078	1.04	0.9247
48 h, 0.01 µM	0.0502	0.0517	0.0508	0.0701	1.09	1
48 h, 0.0316 µM	0.048	0.0505	0.0538	0.0688	1.07	1.01
48 h, 0.1 µM	0.0491	0.0455	0.0604	0.0684	1.07	1
48 h, 0.316 µM	0.0797	0.0414	0.0622	0.063	0.955	1.06
48 h, 1 µM	0.194	0.0496	0.0737	0.0641	0.667	0.886
48 h, 3.16 µM	0.453	0.0897	0.0864	0.0951	0.54	0.719
72 h, 0.00316 µM	0.0879	0.191	0.0342	0.088	1.29	1.06
72 h, 0.01 µM	0.0831	0.153	0.0343	0.0756	1.39	1.14
72 h, 0.0316 µM	0.0746	0.0537	0.0341	0.0733	1.19	1.17
72 h, 0.1 µM	0.0587	0.0438	0.0335	0.0668	0.871	1.2
72 h, 0.316 µM	0.0687	0.0484	0.0444	0.0671	0.587	1.06
72 h, 1 µM	0.25	0.074	0.0453	0.0874	0.367	0.671
72 h, 3.16 µM	0.723	0.129	0.0682	0.164	0.349	0.42

Cn1cnc2c(F)c(Nc3ccc(Br)cc3Cl)c(C(=O)NOCCO)cc21 [Selumetinib]
Conditions	apoptotic fraction of cells, COLO858	apoptotic fraction of cells, LOXIMVI	apoptotic fraction of cells, RVH421	apoptotic fraction of cells, WM1552C [1]	relative viability, MZ7MEL	relative viability, WM1552C [2]
24 h, 0.00316 µM	0.0501	0.0508	0.0531	0.0571	1.03	0.97
24 h, 0.01 µM	0.0441	0.0393	0.0501	0.0689	1.13	0.993
24 h, 0.0316 µM	0.0433	0.0293	0.0442	0.0771	1.11	1.0822
24 h, 0.1 µM	0.0474	0.0452	0.0496	0.0894	1.07	1.07
24 h, 0.316 µM	0.083	0.0393	0.0515	0.0876	1.07	1.03
24 h, 1 µM	0.137	0.0476	0.0523	0.112	0.997	1.06
24 h, 3.16 µM	0.149	0.0428	0.0612	0.0803	0.809	0.947
48 h, 0.00316 µM	0.0496	0.111	0.0489	0.065	1.01	0.947
48 h, 0.01 µM	0.049	0.0778	0.0601	0.0655	1.01	0.992
48 h, 0.0316 µM	0.0473	0.0621	0.0622	0.0575	1.04	0.956
48 h, 0.1 µM	0.0649	0.0589	0.0642	0.0656	0.797	0.867
48 h, 0.316 µM	0.155	0.0582	0.0635	0.0753	0.508	0.761
48 h, 1 µM	0.232	0.0523	0.0671	0.0765	0.504	0.676
48 h, 3.16 µM	0.313	0.0597	0.0755	0.1	0.492	0.677
72 h, 0.00316 µM	0.0958	0.161	0.0328	0.0885	1.14	0.862
72 h, 0.01 µM	0.0753	0.0676	0.0321	0.073	1.06	0.918
72 h, 0.0316 µM	0.0678	0.0426	0.0318	0.0737	0.58	0.806
72 h, 0.1 µM	0.0769	0.0445	0.0418	0.0814	0.328	0.635
72 h, 0.316 µM	0.134	0.0604	0.0438	0.104	0.349	0.526
72 h, 1 µM	0.259	0.0759	0.0599	0.146	0.308	0.44
72 h, 3.16 µM	0.383	0.105	0.0977	0.19	0.31	0.411

Cc1ccc(NC(=O)c2cccc(C(C)(C)C#N)c2)cc1Nc1ccc2ncn(C)c(=O)c2c1 [AZ628]
Conditions	apoptotic fraction of cells, COLO858	apoptotic fraction of cells, LOXIMVI	apoptotic fraction of cells, RVH421	apoptotic fraction of cells, WM1552C [1]	relative viability, MZ7MEL	relative viability, WM1552C [2]
24 h, 0.00316 µM	0.0485	0.0535	0.0557	0.0672	1.02	0.959
24 h, 0.01 µM	0.0403	0.0347	0.0513	0.0724	1.02	0.982
24 h, 0.0316 µM	0.0435	0.0365	0.04611	0.0622	1.05	0.99
24 h, 0.1 µM	0.0728	0.0586	0.0493	0.0716	1.19	1.01
24 h, 0.316 µM	0.105	0.0296	0.0559	0.0799	1.12	0.974
24 h, 1 µM	0.136	0.0677	0.0518	0.0776	0.945	0.996
24 h, 3.16 µM	0.171	0.0554	0.0578	0.104	0.878	0.928
48 h, 0.00316 µM	0.0518	0.0814	0.0503	0.0725	1.03	1.01
48 h, 0.01 µM	0.0435	0.0536	0.053	0.0688	1.04	1
48 h, 0.0316 µM	0.0477	0.0416	0.0555	0.0702	1	0.964
48 h, 0.1 µM	0.12	0.0479	0.0583	0.0329	0.726	0.772
48 h, 0.316 µM	0.221	0.063	0.0645	0.0464	0.549	0.665
48 h, 1 µM	0.296	0.118	0.0779	0.0857	0.435	0.647
48 h, 3.16 µM	0.436	0.163	0.108	0.108	0.465	0.644
72 h, 0.00316 µM	0.0847	0.139	0.0338	0.0855	1.2	1.03
72 h, 0.01 µM	0.0691	0.104	0.032	0.0732	1.11	1.11
72 h, 0.0316 µM	0.0679	0.0405	0.038	0.0827	0.586	0.948
72 h, 0.1 µM	0.109	0.0836	0.0442	0.0883	0.336	0.736
72 h, 0.316 µM	0.225	0.117	0.0517	0.134	0.33	0.555
72 h, 1 µM	0.381	0.211	0.105	0.153	0.356	0.484
72 h, 3.16 µM	0.534	0.497	0.165	0.172	0.327	0.442
